Inhibition and IC50 data for 20 molecules are collected here from ChEMBL document CHEMBL1130505, “2-Aryloxycarbonylthiophene-3-sulfonamides: Highly potent and etA selective endothelin receptor antagonists” (Bioorg Med Chem Lett, 1997).

The first assay deals with T1, Endothelin receptor type B (Homo sapiens) (UniProt P24530).
T1 sequence (whole entry): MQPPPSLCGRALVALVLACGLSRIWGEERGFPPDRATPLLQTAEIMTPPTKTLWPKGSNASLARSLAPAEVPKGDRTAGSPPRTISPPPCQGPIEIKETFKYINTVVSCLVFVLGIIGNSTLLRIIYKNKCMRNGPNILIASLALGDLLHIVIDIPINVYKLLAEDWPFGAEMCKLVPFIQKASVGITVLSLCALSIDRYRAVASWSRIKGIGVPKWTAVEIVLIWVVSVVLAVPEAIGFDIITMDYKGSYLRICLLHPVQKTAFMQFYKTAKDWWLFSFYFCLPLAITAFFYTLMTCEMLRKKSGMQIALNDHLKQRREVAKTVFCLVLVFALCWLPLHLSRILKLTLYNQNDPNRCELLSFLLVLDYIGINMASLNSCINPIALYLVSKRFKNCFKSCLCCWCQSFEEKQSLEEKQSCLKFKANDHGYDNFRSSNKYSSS
Put plainly: Percent inhibition against ETB receptor binding at a concentration of 100 uM.
One may read the inhibition as the change of the read-out against control, counted positive when it falls. High values mean a strong effect, low ones a weak effect. `Cc1noc(NS(=O)(=O)c2ccsc2C(=O)O)c1Cl` had an inhibition of less than 50%.

For the molecule `COC(=O)c1sccc1S(=O)(=O)Nc1onc(C)c1Br`, the inhibition is less than 50%.

`Cc1ccc(OC(=O)c2sccc2S(=O)(=O)Nc2onc(C)c2Cl)cc1` yielded an inhibition of less than 50%.

With `Cc1noc(NS(=O)(=O)c2ccsc2C(=O)Nc2ccccc2)c1Cl`, the inhibition was less than 50%.

`Cc1ccccc1OC(=O)c1sccc1S(=O)(=O)Nc1onc(C)c1Br` yielded an inhibition of less than 50%.

As to `Cc1noc(NS(=O)(=O)c2ccsc2C(=O)Oc2ccccc2)c1C`, the inhibition is less than 50%.

The molecule `COC(=O)c1sccc1S(=O)(=O)Nc1onc(C)c1Cl` yielded an inhibition of less than 50%.

`Cc1ccc(OC(=O)c2sccc2S(=O)(=O)Nc2onc(C)c2C)cc1` came in with an inhibition of less than 50%.

For the molecule `Cc1cccc(OC(=O)c2sccc2S(=O)(=O)Nc2onc(C)c2Br)c1`, the inhibition was less than 50%.

Molecule `Cc1noc(NS(=O)(=O)c2ccsc2C(=O)Nc2ccccc2)c1C` returned an inhibition of less than 50%.

Molecule `Cc1ccc(OC(=O)c2sccc2S(=O)(=O)Nc2onc(C)c2C)c(C)c1` had an inhibition of less than 50%.

`COC(=O)c1sccc1S(=O)(=O)Nc1onc(C)c1C` yielded an inhibition of less than 50%.

Regarding `Cc1noc(NS(=O)(=O)c2ccsc2C(=O)O)c1C`, the inhibition was less than 50%.

Molecule `Cc1noc(NS(=O)(=O)c2ccsc2C(=O)O)c1Br` returned an inhibition of less than 50%.

The molecule `Cc1noc(NS(=O)(=O)c2ccsc2C(=O)Oc2ccccc2)c1Br` gave an inhibition of less than 50%.

`Cc1noc(NS(=O)(=O)c2ccsc2C(=O)Oc2ccccc2)c1Cl`: the inhibition was less than 50%.

The target in a further assay is T2, Endothelin receptor type B (Homo sapiens, UniProt P24530).
T2 sequence (P24530 whole entry): T1 sequence (whole entry)
Put plainly: In vitro binding affinity in a radioligand binding experiment by competition with [125I]-labeled endothelin-1 for ETB receptor.
What is called IC50 is the concentration that gives 50% inhibition. A higher IC50 goes with weaker potency. Regarding `Cc1noc(NS(=O)(=O)c2ccsc2C(=O)Oc2ccc3c(c2)OCO3)c1Br`, the IC50 was found to be 5.74 µM.

`Cc1noc(NS(=O)(=O)c2ccsc2C(=O)O)c1Cl` gave an IC50 of more than 100 µM.

Regarding `COC(=O)c1sccc1S(=O)(=O)Nc1onc(C)c1Br`, the IC50 is more than 100 µM.

Molecule `Cc1ccc(OC(=O)c2sccc2S(=O)(=O)Nc2onc(C)c2Cl)cc1` showed an IC50 of more than 100 µM.

On to `Cc1ccc(OC(=O)c2sccc2S(=O)(=O)Nc2onc(C)c2Br)cc1`, for which the IC50 is 9.21 µM.

The molecule `Cc1noc(NS(=O)(=O)c2ccsc2C(=O)Nc2ccccc2)c1Cl` returned an IC50 of more than 100 µM.

Molecule `Cc1ccccc1OC(=O)c1sccc1S(=O)(=O)Nc1onc(C)c1Br` gave an IC50 of more than 100 µM.

For the molecule `Cc1noc(NS(=O)(=O)c2ccsc2C(=O)Oc2ccccc2)c1C`, the half-inhibitory concentration (IC50) is more than 100 µM.

Turning to `COC(=O)c1sccc1S(=O)(=O)Nc1onc(C)c1Cl`, the IC50 was more than 100 µM.

As for `Cc1ccc(OC(=O)c2sccc2S(=O)(=O)Nc2onc(C)c2C)cc1`, the IC50 is more than 100 µM.

Regarding `Cc1cccc(OC(=O)c2sccc2S(=O)(=O)Nc2onc(C)c2Br)c1`, the IC50 is more than 100 µM.

The molecule `Cc1noc(NS(=O)(=O)c2ccsc2C(=O)Nc2ccccc2)c1C` gave an IC50 of more than 100 µM.

Take `Cc1noc(NS(=O)(=O)c2ccsc2C(=O)Oc2ccc3c(c2)OCO3)c1C`: the IC50 came to 48.7 µM.

On to `Cc1ccc(OC(=O)c2sccc2S(=O)(=O)Nc2onc(C)c2C)c(C)c1`, for which the IC50 is more than 100 µM.

As to `COC(=O)c1sccc1S(=O)(=O)Nc1onc(C)c1C`, the IC50 was more than 100 µM.

Molecule `Cc1noc(NS(=O)(=O)c2ccsc2C(=O)Oc2ccc3c(c2)OCO3)c1Cl` displayed an IC50 of 7.94 µM. That is a single-digit micromolar value.

Turning to `Cc1noc(NS(=O)(=O)c2ccsc2C(=O)O)c1C`, the half-inhibitory concentration (IC50) is more than 100 µM.

Regarding `Cc1noc(NS(=O)(=O)c2ccsc2C(=O)O)c1Br`, the IC50 is more than 100 µM.

In turn, `Cc1noc(NS(=O)(=O)c2ccsc2C(=O)Oc2ccccc2)c1Br` displayed an IC50 of more than 100 µM.

As for `Cc1noc(NS(=O)(=O)c2ccsc2C(=O)Oc2ccccc2)c1Cl`, the IC50 is more than 100 µM.

The next assay addresses T3, Endothelin-1 receptor (Homo sapiens, UniProt P25101).
T3 sequence (P25101 whole entry): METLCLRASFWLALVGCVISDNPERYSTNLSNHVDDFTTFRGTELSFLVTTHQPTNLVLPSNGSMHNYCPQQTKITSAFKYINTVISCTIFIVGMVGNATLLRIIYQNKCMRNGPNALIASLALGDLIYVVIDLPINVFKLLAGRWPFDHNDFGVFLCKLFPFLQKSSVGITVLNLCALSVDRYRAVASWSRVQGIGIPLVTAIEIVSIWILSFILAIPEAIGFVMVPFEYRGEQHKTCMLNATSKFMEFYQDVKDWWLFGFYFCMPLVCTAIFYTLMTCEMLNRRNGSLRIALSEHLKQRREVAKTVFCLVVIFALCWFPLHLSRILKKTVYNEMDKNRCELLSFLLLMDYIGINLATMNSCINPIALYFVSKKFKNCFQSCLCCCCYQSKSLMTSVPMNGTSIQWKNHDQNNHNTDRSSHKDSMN
Nature of the assay: In vitro binding affinity in a radioligand binding experiment by competition with [125I]-labeled endothelin-1 for ETA receptor.
`Cc1noc(NS(=O)(=O)c2ccsc2C(=O)Oc2ccc3c(c2)OCO3)c1Br` displayed an IC50 of 0.0089 µM.

`Cc1noc(NS(=O)(=O)c2ccsc2C(=O)O)c1Cl`: the IC50 came out at 1.06 µM.

`COC(=O)c1sccc1S(=O)(=O)Nc1onc(C)c1Br` gave an IC50 of 0.74 µM.

`Cc1ccc(OC(=O)c2sccc2S(=O)(=O)Nc2onc(C)c2Br)cc1` returned an IC50 of 0.0093 µM. Compared with the last molecule, the IC50 is about 80-fold lower.

Molecule `Cc1noc(NS(=O)(=O)c2ccsc2C(=O)Nc2ccccc2)c1Cl` displayed an IC50 of 0.148 µM.

Molecule `Cc1noc(NS(=O)(=O)c2ccsc2C(=O)Oc2ccccc2)c1C` registered an IC50 of 4.12 µM.

`COC(=O)c1sccc1S(=O)(=O)Nc1onc(C)c1Cl`: the IC50 was found to be 1.09 µM.

`Cc1ccc(OC(=O)c2sccc2S(=O)(=O)Nc2onc(C)c2C)cc1` returned an IC50 of 2.52 µM.

Consider `Cc1noc(NS(=O)(=O)c2ccsc2C(=O)Nc2ccccc2)c1C`, for which the IC50 is 0.55 µM.

In turn, `Cc1noc(NS(=O)(=O)c2ccsc2C(=O)Oc2ccc3c(c2)OCO3)c1C` returned an IC50 of 6.14 µM. Compared with the last molecule, the IC50 is about 11-fold higher.

`Cc1ccc(OC(=O)c2sccc2S(=O)(=O)Nc2onc(C)c2C)c(C)c1` yielded an IC50 of 0.27 µM.

As for `COC(=O)c1sccc1S(=O)(=O)Nc1onc(C)c1C`, the IC50 worked out at 3.47 µM. This IC50 is about 13-fold higher than that of the molecule before.

Molecule `Cc1noc(NS(=O)(=O)c2ccsc2C(=O)Oc2ccc3c(c2)OCO3)c1Cl` yielded a half-inhibitory concentration (IC50) of 0.0083 µM.

`Cc1noc(NS(=O)(=O)c2ccsc2C(=O)O)c1C` came in with an IC50 of 6.06 µM.

`Cc1noc(NS(=O)(=O)c2ccsc2C(=O)O)c1Br` displayed a half-inhibitory concentration (IC50) of 10.2 µM.
